Measurements as given in ChEMBL document CHEMBL4007412, “Design, Synthesis, and Biological Evaluation of Mitochondria-Targeted Flavone-Naphthalimide-Polyamine Conjugates with Antimetastatic Activity” (J Med Chem, 2017).
Activity calls are given as the source filed them. No cut-off for these calls is given here.

Tests used:
[1] = Drug uptake in human HepG2 cells assessed as PAT-mediated compound uptake by measuring fluorescent intensity at 5 to 10 uM after 6 hrs in presence of spermidine by HCS analysis; format: ADME, cell-based
[2] = Drug localization in human HepG2 cell mitochondria at 10 uM after 8 hrs by Mito tracker-staining based confocal microscopic analysis; format: ADME
HepG2 [3] = test: Induction of p53 expression in human HepG2 cells up to 20 uM pre-treated with NAC after 24 hrs by Western blot analysis relative to control; format: functional, cell-based
HepG2 [4] = test: Effect on spermine levels in human HepG2 cells at 20 uM after 24 hrs by HPLC analysis; format: functional, cell-based
SMMC-7721 [5] = test: Effect on putrescine levels in human SMMC7721 cells at 20 uM after 24 hrs by HPLC analysis; format: functional, cell-based
[6] = Cytotoxicity against human QSG7701 cells assessed as cell growth inhibition after 48 hrs by MTT assay; format: cell-based; details: QSG7701, 48 h
SMMC-7721 [7] = test: Induction of intracellular ROS generation in human SMMC7721 cells at 20 uM after 8 hrs by DCFH-DA staining based HCS analysis relative to control; format: functional
[8] = Drug localization in human HepG2 cell lysosomes at 10 uM after 8 hrs by Lyso tracker-staining based confocal microscopic analysis; format: ADME, Lysosome
HepG2 [9] = test: Cytotoxicity against human HepG2 cells assessed as effect on cell viability at 5 to 20 uM after 24 hrs in absence of spermidine by MTT assay; format: functional, cell-based
HepG2 [10] = test: Induction of p53 expression in human HepG2 cells up to 20 uM after 24 hrs by immunofluoresence assay relative to control; format: functional, cell-based
[11] = Drug uptake in human HepG2 cells assessed as PAT-mediated cellular uptake after 8 hrs by HCS analysis; format: ADME, cell-based
SMMC-7721 [12] = test: Antimigratory activity against human SMMC7721 cells incubated for 24 hrs by transwell assay; format: functional, cell-based
HepG2 [13] = test: Effect on SSAT expression in human HepG2 cells at 5 to 20 uM after 24 hrs by Western blot analysis; format: functional, cell-based
HepG2 [14] = test: Induction of apoptosis in human HepG2 cells assessed as necrotic cells at 20 uM after 24 hrs by Annexin V-FITC/propidium iodide staining based flow cytometric analysis (reference value: 2.99 %); format: functional
HepG2 [15] = test: Effect on ODC expression in human HepG2 cells at 5 to 20 uM after 24 hrs by Western blot analysis; format: functional, cell-based
HepG2 [16] = test: Cytotoxicity against human HepG2 cells assessed as cell growth inhibition after 48 hrs by MTT assay; format: functional, cell-based; details: HepG2, 48 h
HepG2 [17] = test: Inhibition of colony formation of human HepG2 cells up to 20 uM […] by crystal violet staining based colony formation assay; format: functional, cell-based
SMMC-7721 [18] = test: Effect on ODC expression in human SMMC7721 cells at 5 to 20 uM after 24 hrs by Western blot analysis; format: functional, cell-based
HepG2 [19] = test: Induction of superoxide production in human HepG2 cells at 20 uM after 24 hrs by microplate reader based assay; format: functional, cell-based
H22 = test: Antimetastatic activity against […] xenografted in pulmonary metastasis Kunming mouse model assessed as reduction in tumor metastatic nodules at 3 mg/kg, iv dosed every day starting from day 8 after tumor cell inoculation; format: functional; design: scale not given: the % may be the effect or the level left
Mus musculus [20] = test: Toxicity in Kunming mouse xenografted with […] cells assessed as effect on liver weight index at 3 mg/kg, iv dosed every day starting from day 8 after tumor cell inoculation; format: organism-based; details: in vivo
HepG2 [21] = test: Cytotoxicity against human HepG2 cells assessed as effect on cell viability at 5 to 10 uM after 24 hrs in presence of spermidine by MTT assay; format: functional, cell-based
HepG2 [22] = test: Induction of apoptosis in human HepG2 cells assessed as early apoptotic cells at 20 uM after 24 hrs by Annexin V-FITC/propidium iodide staining based flow cytometric analysis (reference value: 2.09 %); format: functional
HepG2 [23] = test: Inhibition of cell migration in human HepG2 cells pretreated with NAC measured after 24 hrs by transwell assay; format: functional, cell-based
SMMC-7721 [24] = test: Cytotoxicity against human SMMC7721 cells assessed as reduction in cell viability up to 20 uM after 24 to 72 hrs by MTT assay; format: functional, cell-based
SMMC-7721 [25] = test: Effect on SSAT expression in human SMMC7721 cells at 5 to 20 uM after 24 hrs by Western blot analysis; format: functional, cell-based
Mus musculus [26] = test: Toxicity in Kunming mouse xenografted with […] cells assessed as effect on spleen weight index at 3 mg/kg, iv dosed every day starting from day 8 after tumor cell inoculation; format: organism-based; details: in vivo
SMMC-7721 [27] = test: Inhibition of colony formation of human SMMC7721 cells up to 20 uM […] by crystal violet staining based colony formation assay; format: functional, cell-based
HepG2 [28] = test: Induction of apoptosis in human HepG2 cells assessed as increase in apoptotic cells up to 20 uM after 24 hrs by AO/EB double staining based flow cytometric analysis; format: functional, cell-based
Mus musculus [29] = test: Toxicity in Kunming mouse xenografted with […] cells assessed as effect on lung weight index at 3 mg/kg, iv dosed every day starting from day 8 after tumor cell inoculation; format: organism-based; details: in vivo
[30] = Induction of intracellular ROS generation in human QSG7701 cells at 20 uM after 8 hrs by DCFH-DA staining based HCS analysis relative to control; format: cell-based; details: qsg7701, 8 h
SMMC-7721 [31] = test: Antiproliferative activity against human SMMC7721 cells assessed as reduction in cell viability at 20 uM pre-treated with CAT after 48 hrs by MTT assay; format: functional, cell-based
[32] = Drug uptake in human HepG2 cells assessed as PAT-mediated cellular uptake at 10 uM by HCS analysis; format: ADME, cell-based; details: TDE = time-dependent effect
HepG2 [33] = test: Induction of apoptosis in human HepG2 cells assessed as up-regulation of caspase 3 expression up to 20 uM after 24 hrs by Western blot analysis; format: functional, cell-based
HepG2 [34] = test: Induction of ROS generation in human HepG2 cells assessed as depletion of GSH content at 20 uM after 24 hrs by GSSG assay; format: functional, cell-based
HepG2 [35] = test: Cytotoxicity against human HepG2 cells assessed as reduction in cell viability up to 20 uM after 24 to 72 hrs by MTT assay; format: functional, cell-based
HepG2 [36] = test: Induction of apoptosis in human HepG2 cells assessed as upregulation of cleaved caspase 3 after 24 hrs by immunofluorescence analysis; format: functional, cell-based
HepG2 [37] = test: Induction of ROS generation in human HepG2 cells at 20 uM after 24 hrs in presence of CAT by DCFH-DA-staining based HCS analysis; format: functional, cell-based
SMMC-7721 [38] = test: Effect on spermidine levels in human SMMC7721 cells at 20 uM after 24 hrs by HPLC analysis; format: functional, cell-based
[39] = Induction of apoptosis in human QSG7701 cells assessed as up-regulation of caspase 3 expression up to 20 uM after 24 hrs by Western blot analysis; format: cell-based; details: qsg7701, 24 h
SMMC-7721 [40] = test: Effect on spermine levels in human SMMC7721 cells at 20 uM after 24 hrs by HPLC analysis; format: functional, cell-based
HepG2 [41] = test: Effect on spermidine levels in human HepG2 cells at 20 uM after 24 hrs by HPLC analysis; format: functional, cell-based
[42] = Drug localization in mitochondria of human HepG2 cells at 10 uM after 8 hrs by UV-bright field microscopic analysis; format: ADME

## Cl.Cl.NCCCCNCCCCN1C(=O)c2cccc3c(-c4cc(=O)c5ccccc5o4)ccc(c23)C1=O
[1]
  Drug uptake: Not Active
[2]
  Drug uptake: Active
HepG2 [3]
  Activity: inactive
HepG2 [4]
  Activity: inactive
SMMC-7721 [5]
  Activity: inactive
[6]
  IC50: > 50 µM
SMMC-7721 [7]
  fold change (FC): 2.2
[8]
  Drug uptake: Not Active
HepG2 [9]
  Activity: Active
HepG2 [10]
  Activity: Dose-dependent effect
[11]
  Drug uptake: Dose-dependent effect
SMMC-7721 [12]
  Activity: Dose-dependent effect
HepG2 [13]
  Activity: inactive
HepG2 [14]
  Activity: 8.91%
HepG2 [15]
  Activity: inactive
HepG2 [16]
  IC50: 10.3 µM
HepG2 [17]
  Activity: Active
SMMC-7721 [18]
  Activity: inactive
HepG2 [19]
  Activity: Active
H22
  Activity: 77.9%
Mus musculus [20]
  Activity: Non-Toxic
HepG2 [21]
  Activity: inactive
HepG2 [22]
  Activity: 26.6%
HepG2 [23]
  inhibition: inactive
SMMC-7721 [24]
  Activity: Active
SMMC-7721 [25]
  Activity: inactive
Mus musculus [26]
  Activity: Non-Toxic
SMMC-7721 [27]
  Activity: Active
HepG2 [28]
  Activity: Dose-dependent effect
Mus musculus [29]
  Activity: Non-Toxic
[30]
  Activity: Non-Toxic
SMMC-7721 [31]
  Activity: inactive
[32]
  Drug uptake: Tde
HepG2 [33]
  Activity: Active
HepG2 [34]
  Activity: Active
HepG2 [35]
  Activity: Active
HepG2 [36]
  Activity: Dose-dependent effect
HepG2 [37]
  Activity: inactive
SMMC-7721 [38]
  Activity: inactive
[39]
  Activity: Non-Toxic
SMMC-7721 [40]
  Activity: inactive
HepG2 [41]
  Activity: inactive
[42]
  Drug uptake: Active
